Assay: xn = mol fraction of the nth substance listed
Conditions: 101 kPa, Liquid; for speed of sound: sound velocity cell; for mass density: Vibrating tube method

CC(=O)[O-].[NH3+]CCO [2-hydroxyethylammonium acetate] + CCO
Conditions | mass density [kg/m3] | speed of sound [m/s]
305.65 K, x1 = 0.0497 | – | 1161.8
305.65 K, x1 = 0.101 | – | 1201.5
305.65 K, x1 = 0.201 | – | 1273.6
305.65 K, x1 = 0.3009 | – | 1359.9
305.65 K, x1 = 0.4057 | – | 1421.5
305.65 K, x1 = 0.4946 | – | 1483
305.65 K, x1 = 0.603 | – | 1556.5
305.65 K, x1 = 0.6765 | – | 1601.8
305.65 K, x1 = 0.7918 | – | 1660.8
305.65 K, x1 = 0.8825 | – | 1708.2
305.65 K, x1 = 0.9539 | – | 1748.7
305.65 K, x1 = 1 | – | 1773.4
308.15 K, x1 = 0.0497 | 813.395 | 1153.6
308.15 K, x1 = 0.101 | 846.797 | 1193.5
308.15 K, x1 = 0.201 | 902.073 | 1266
308.15 K, x1 = 0.3009 | 949.706 | 1352.8
308.15 K, x1 = 0.4057 | 992.164 | 1414.7
308.15 K, x1 = 0.4946 | 1023.13 | 1476.4
308.15 K, x1 = 0.603 | 1056.17 | 1550.2
308.15 K, x1 = 0.6765 | 1076.23 | 1595.6
308.15 K, x1 = 0.7918 | 1104.25 | 1654.6
308.15 K, x1 = 0.8825 | 1123.77 | 1702.2
308.15 K, x1 = 0.9539 | 1136.79 | 1742.2
308.15 K, x1 = 1 | 1143.39 | 1767.9
310.65 K, x1 = 0.0497 | 811.269 | 1145.4
310.65 K, x1 = 0.101 | 844.752 | 1185.5
310.65 K, x1 = 0.201 | 900.153 | 1258.5
310.65 K, x1 = 0.3009 | 947.892 | 1345.7
310.65 K, x1 = 0.4057 | 990.442 | 1407.8
310.65 K, x1 = 0.4946 | 1021.48 | 1469.7
310.65 K, x1 = 0.603 | 1054.53 | 1544
310.65 K, x1 = 0.6765 | 1074.71 | 1589.6
310.65 K, x1 = 0.7918 | 1102.76 | 1648.5
310.65 K, x1 = 0.8825 | 1122.31 | 1696.2
310.65 K, x1 = 0.9539 | 1135.37 | 1735.9
310.65 K, x1 = 1 | 1141.96 | 1762.5
313.15 K, x1 = 0.0497 | 809.131 | 1137.2
313.15 K, x1 = 0.101 | 842.694 | 1177.6
313.15 K, x1 = 0.201 | 898.225 | 1251
313.15 K, x1 = 0.3009 | 946.069 | 1338.7
313.15 K, x1 = 0.4057 | 988.723 | 1401
313.15 K, x1 = 0.4946 | 1019.83 | 1463.2
313.15 K, x1 = 0.603 | 1052.87 | 1537.7
313.15 K, x1 = 0.6765 | 1073.17 | 1583.5
313.15 K, x1 = 0.7918 | 1101.31 | 1642.5
313.15 K, x1 = 0.8825 | 1120.85 | 1690.2
313.15 K, x1 = 0.9539 | 1133.96 | 1729.9
313.15 K, x1 = 1 | 1140.55 | 1757.2
315.65 K, x1 = 0.0497 | 806.984 | 1129.1
315.65 K, x1 = 0.101 | 840.628 | 1169.7
315.65 K, x1 = 0.201 | 896.29 | 1243.5
315.65 K, x1 = 0.3009 | 944.245 | 1331.6
315.65 K, x1 = 0.4057 | 986.994 | 1394.2
315.65 K, x1 = 0.4946 | 1018.18 | 1456.6
315.65 K, x1 = 0.603 | 1051.28 | 1531.4
315.65 K, x1 = 0.6765 | 1071.63 | 1577.4
315.65 K, x1 = 0.7918 | 1099.86 | 1636.6
315.65 K, x1 = 0.8825 | 1119.38 | 1684.4
315.65 K, x1 = 0.9539 | 1132.54 | 1723.9
315.65 K, x1 = 1 | 1139.18 | 1751.9
318.15 K, x1 = 0.0497 | 804.825 | 1120.9
318.15 K, x1 = 0.101 | 838.551 | 1161.8
318.15 K, x1 = 0.201 | 894.347 | 1235.9
318.15 K, x1 = 0.3009 | 942.413 | 1324.5
318.15 K, x1 = 0.4057 | 985.266 | 1387.3
318.15 K, x1 = 0.4946 | 1016.52 | 1450
318.15 K, x1 = 0.603 | 1049.69 | 1525.2
318.15 K, x1 = 0.6765 | 1070.09 | 1571.3
318.15 K, x1 = 0.7918 | 1098.4 | 1630.7
318.15 K, x1 = 0.8825 | 1117.9 | 1678.6
318.15 K, x1 = 0.9539 | 1131.12 | 1718.1
318.15 K, x1 = 1 | 1137.82 | 1746.5
320.65 K, x1 = 0.0497 | 802.647 | 1112.8
320.65 K, x1 = 0.101 | 836.46 | 1153.9
320.65 K, x1 = 0.201 | 892.395 | 1228.4
320.65 K, x1 = 0.3009 | 940.573 | 1317.5
320.65 K, x1 = 0.4057 | 983.53 | 1380.5
320.65 K, x1 = 0.4946 | 1014.85 | 1443.5
320.65 K, x1 = 0.603 | 1048.1 | 1519
320.65 K, x1 = 0.6765 | 1068.53 | 1565.3
320.65 K, x1 = 0.7918 | 1096.93 | 1624.8
320.65 K, x1 = 0.8825 | 1116.49 | 1672.8
320.65 K, x1 = 0.9539 | 1129.69 | 1712.4
320.65 K, x1 = 1 | 1136.45 | 1741.3
323.15 K, x1 = 0.0497 | 800.468 | 1104.7
323.15 K, x1 = 0.101 | 834.368 | 1146
323.15 K, x1 = 0.201 | 890.443 | 1221
323.15 K, x1 = 0.3009 | 938.735 | 1310.5
323.15 K, x1 = 0.4057 | 981.801 | 1373.7
323.15 K, x1 = 0.4946 | 1013.19 | 1437
323.15 K, x1 = 0.603 | 1046.54 | 1512.7
323.15 K, x1 = 0.6765 | 1066.98 | 1559.4
323.15 K, x1 = 0.7918 | 1095.47 | 1618.9
323.15 K, x1 = 0.8825 | 1115.06 | 1667.2
323.15 K, x1 = 0.9539 | 1128.27 | 1706.7
323.15 K, x1 = 1 | 1135.08 | 1736
